The target in data set [1] is aurora B (Homo sapiens, UniProt Q96GD4). As to the kind of experiment: radioisotope-based P81 filter-binding assay, aurora B kinase. The conditions noted are these: for inhibition at 1 µM: compound at 1.0 μM, mean values (n=2), read-out: percent inhibition of enzyme catalytic activity, Aur B (numbers in parentheses); for IC50: read-out: Enzyme assay IC50 Aur B. The format is biochemical. As to the method:
(§1) Compounds of formula (I)-(IV) were evaluated for abilities in inhibiting protein kinases aurora B and FLT-3 activity using radioisotope-based P81 filter-binding assay (Table 1).

Data set [2] deals with T1, FLT-3 (Homo sapiens, UniProt P36888).
T1 sequence (P36888 27-993): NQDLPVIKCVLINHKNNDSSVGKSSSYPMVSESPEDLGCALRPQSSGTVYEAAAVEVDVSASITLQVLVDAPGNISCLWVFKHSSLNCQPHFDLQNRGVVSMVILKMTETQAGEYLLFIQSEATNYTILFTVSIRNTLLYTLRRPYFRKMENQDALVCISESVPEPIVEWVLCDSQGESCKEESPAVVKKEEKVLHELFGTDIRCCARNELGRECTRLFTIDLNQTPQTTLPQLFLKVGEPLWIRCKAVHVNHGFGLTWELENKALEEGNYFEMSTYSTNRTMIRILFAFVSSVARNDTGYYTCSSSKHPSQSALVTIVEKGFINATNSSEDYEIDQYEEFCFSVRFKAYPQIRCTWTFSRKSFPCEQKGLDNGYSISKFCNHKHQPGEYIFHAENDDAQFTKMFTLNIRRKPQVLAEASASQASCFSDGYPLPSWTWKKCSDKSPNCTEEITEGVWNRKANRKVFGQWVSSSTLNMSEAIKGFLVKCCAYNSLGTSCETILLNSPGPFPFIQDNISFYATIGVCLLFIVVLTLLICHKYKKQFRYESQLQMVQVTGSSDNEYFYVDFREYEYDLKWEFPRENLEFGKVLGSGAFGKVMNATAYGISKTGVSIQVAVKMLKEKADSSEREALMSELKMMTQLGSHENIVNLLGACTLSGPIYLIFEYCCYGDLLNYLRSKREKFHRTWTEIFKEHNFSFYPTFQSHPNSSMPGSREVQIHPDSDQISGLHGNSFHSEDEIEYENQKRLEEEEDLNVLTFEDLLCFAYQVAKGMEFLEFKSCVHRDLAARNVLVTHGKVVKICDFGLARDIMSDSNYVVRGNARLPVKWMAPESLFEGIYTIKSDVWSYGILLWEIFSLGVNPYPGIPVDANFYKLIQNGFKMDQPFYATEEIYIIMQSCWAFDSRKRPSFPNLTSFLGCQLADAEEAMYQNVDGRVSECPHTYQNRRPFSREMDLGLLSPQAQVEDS
Nature of the data set: radioisotope-based P81 filter-binding assay, FLT-3 kinase. The format is biochemical. The conditions noted are these: for inhibition at 1 µM: compound at 1.0 μM, mean values (n=2), read-out: percent inhibition of enzyme catalytic activity, FLT-3 (numbers in parentheses); for IC50: averaged from two independent dose-response curves, read-out: Enzyme assay IC50 FLT-3. How it is done: as §1

[3] abbreviates: averaged from two independent dose-response curves.

Molecules are shown by their SMILES. Where two headings read alike, the source gives them in different places.

In general, melting point refers to the temperature of the solid-liquid transition. As a reminder, the inhibition is the relative decrease from the control value, in per cent. What is called IC50 is the concentration at which inhibition is half-maximal.

Sequence of aurora B (Q96GD4 whole entry): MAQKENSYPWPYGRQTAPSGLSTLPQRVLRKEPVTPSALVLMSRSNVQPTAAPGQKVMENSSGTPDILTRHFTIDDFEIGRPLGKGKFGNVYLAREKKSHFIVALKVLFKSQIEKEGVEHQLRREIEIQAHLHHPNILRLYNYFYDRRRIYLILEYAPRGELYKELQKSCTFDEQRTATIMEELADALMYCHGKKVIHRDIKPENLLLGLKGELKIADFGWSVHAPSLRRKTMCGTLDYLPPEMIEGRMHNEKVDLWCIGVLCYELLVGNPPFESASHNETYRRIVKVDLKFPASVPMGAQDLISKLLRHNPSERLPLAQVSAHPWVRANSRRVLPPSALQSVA

For `Cc1[nH]c(/C=C2\C(=O)Nc3cc(NC(=O)NC(=O)c4ccc(Cl)c(C(F)(F)F)c4)ccc32)c(C)c1CCC(=O)O` (hydrate or solvate) [D37, (Z)-3-(5-((6-(3-(4-chloro-3-(trifluoromethyl)benzoyl)ureido)-2-oxo-indolin-3-ylidene)methyl)-2,4-dimethyl-1H-pyrrol-3-yl)propanoic acid], the melting point was 270 to 275 °C (dec.).

For the molecule `COc1ccc(C(=O)NC(=O)Nc2ccc3c(c2)NC(=O)C3=Cc2ccco2)cc1` (stereo in doubt) [D23, (E)-N-(3-(furan-2-ylmethylene)-2-oxoindolin-6-ylcarbamoyl)-4-methoxybenzamide], the melting point is 278 to 283 °C (dec.). In data set [1], the inhibition at 1 µM was determined as 44%. Moreover, the inhibition at 1 µM in data set [2] was 15.4%.

Turning to `COc1ccc(C(=O)NC(=O)Nc2cccc3c2/C(=C/c2ccc[nH]2)C(=O)N3)cc1` [D13, (Z)—N-(3-((1H-pyrrol-2-yl)methylene)-2-oxoindolin-4-ylcarbamoyl)-4-methoxybenzamide], in data set [1], the inhibition at 1 µM was 11.2%. Besides, the IC50 in data set [2] was determined as 58.2 nM.

As for `COc1ccc(C(=O)NC(=O)Nc2ccc3c(c2)NC(=O)/C3=C/c2ccccc2)cc1` [D17, (E)-N-(3-benzylidene-2-oxoindolin-6-ylcarbamoyl)-4-methoxybenzamide], the melting point is 277 to 282 °C (dec.). For the same molecule, the inhibition at 1 µM in data set [1] stood at 61.2%. Further, the inhibition at 1 µM in data set [2] is 34.4%.

Consider `COc1ccc(C(=O)NC(=O)Nc2ccc3c(c2)NC(=O)/C3=C/c2ccc(Cl)cc2)cc1` [D18, (E)-N-(3-(4-chlorobenzylidene)-2-oxoindolin-6-ylcarbamoyl)-4-methoxybenz-amide], for which the melting point was 278 to 283 °C (dec.). In data set [1], the inhibition at 1 µM was determined as 12.8%. For the same molecule, the inhibition at 1 µM in data set [2] amounted to 6.1%.

With `COc1ccc(/C=C2/C(=O)Nc3cc(NC(=O)NC(=O)c4ccc(OC)cc4)ccc32)cc1` [D19, (E)-4-methoxy-N-(3-(4-methoxybenzylidene)-2-oxoindolin-6-yl-carbamoyl)benzamide], the melting point is 274 to 279 °C (dec.). For the same molecule, the inhibition at 1 µM in data set [1] was determined as 55.9%. The inhibition at 1 µM in data set [2] was determined as 43.2%.

`COc1ccc(C(=O)NC(=O)Nc2ccc3c(c2)NC(=O)/C3=C\c2ccccn2)cc1` [D20, (Z)-4-methoxy-N-(2-oxo-3-(pyridin-2-ylmethylene)indolin-6-ylcarbamoyl)benzamide]: the melting point is 268 to 273 °C (dec.). Besides, the inhibition at 1 µM in data set [1] was 28.7%. Moreover, the IC50 in data set [2] is greater than 1000 nM.

Regarding `COc1ccc(C(=O)NC(=O)Nc2ccc3c(c2)NC(=O)/C3=C\c2ccncc2)cc1` [D21, (Z)-4-methoxy-N-(2-oxo-3-(pyridin-4-ylmethylene)indolin-6-ylcarbamoyl)benzamide], the melting point was 270 to 275 °C (dec.). Also, the inhibition at 1 µM in data set [1] stood at 7%. The inhibition at 1 µM in data set [2] was 3.6%.

In the case of `COc1ccc(C(=O)NC(=O)Nc2ccc3c(c2)NC(=O)/C3=C\c2cccs2)cc1` [D22, (Z)-4-methoxy-N-(2-oxo-3-(thiophen-2-ylmethylene)indolin-6-ylcarbamoyl)benzamide], the melting point is 262 to 267 °C (dec.). Further, in data set [1] (setting [3]), the IC50 was 21.5 nM. In addition, the IC50 in data set [2] was greater than 1000 nM.

`COc1ccc(C(=O)NC(=O)Nc2ccc3c(c2)NC(=O)/C3=C\c2[nH]c(C)c(CCC(=O)O)c2C)cc1` [D47, (Z)-3-(5-((6-(3-(4-methoxybenzoyl)ureido)-2-oxoindolin-3-ylidene)methyl)-2,4-dimethyl-1H-pyrrol-3-yl)propanoic acid]: the IC50 worked out at 1.2 nM in data set [1] (setting [3]) and 2.7 nM in data set [2].

Regarding `COc1ccc(C(=O)NC(=O)Nc2cc3c(cc2F)/C(=C/c2[nH]c(C)c(C(=O)O)c2C)C(=O)N3)cc1` [D49], the half-inhibitory concentration (IC50) in data set [1] (setting [3]) was 1.5 nM; in data set [2] it was 909 nM.

`COc1ccc(C(=O)NC(=O)Nc2cc3c(cc2F)/C(=C/c2[nH]c(C)c(CCC(=O)O)c2C)C(=O)N3)cc1` [D51, (Z)-3-(5-((5-fluoro-6-(3-(4-methoxybenzoyl)ureido)-2-oxoindolin-3-ylidene)-methyl)-2,4-dimethyl-1H-pyrrol-3-yl)propanoic acid]: in data set [1], the IC50 turned out to be 3 nM.

Consider `COc1ccc(C(=O)NC(=O)Nc2ccc3c(c2)NC(=O)/C3=C\c2[nH]c(C)c(CCC(=O)O)c2C)c(F)c1` [D58, (Z)-3-(5-((6-(3-(2-fluoro-4-methoxybenzoyl)uriedo)-2-oxoindolin-3-ylidene)methyl)-2,4-dimethyl-1H-pyrrol-3-yl)propanoic acid], for which the figures for the IC50 in data set [1] (setting [3]) and in data set [2] were 1.3 nM and 10 nM, respectively.

Turning to `COc1ccc(C(=O)NC(=O)Nc2cc3c(cc2F)/C(=C/c2[nH]c(C)c(C(=O)O)c2C)C(=O)N3)c(F)c1` [D59, (Z)-5-((5-fluoro-6-(3-(2-fluoro-4-methoxybenzoyl)ureido)-2-oxoindolin-3-ylidene)methyl)-2,4-dimethyl-1H-pyrrole-3-carboxylic acid], the IC50 is 3 nM in data set [1] (setting [3]) and 406 nM in data set [2].

As to `CCOC(=O)CCc1c(C)[nH]c(/C=C2\C(=O)Nc3cc(NC(=O)NC(=O)c4ccc(OC)cc4F)ccc32)c1C` [D63, (Z)-ethyl-3-(5-((6-(3-(2-fluoro-4-methoxybenzoyl)ureido)-2-oxoindolin-3-ylidene)methyl)-2,4-dimethyl-1H-pyrrol-3-yl)propanoate], the half-inhibitory concentration (IC50) is 218 nM in data set [1] (setting [3]) and 3840 nM in data set [2].

On to `COc1ccc(NC(=O)CC(=O)Nc2ccc3c(c2)NC(=O)/C3=C\c2ccc[nH]2)cc1` [D76, (Z)—N^1-(3-((1H-pyrrol-2-yl)methylene)-2-oxoindolin-6-yl)-N^3-(4-methoxyphenyl)malonamide], for which the IC50 in data set [1] (setting [3]) worked out at 29.6 nM.

In the case of `O=C1Nc2cc(NC(=O)N3CCN(c4ccccc4F)C3=O)ccc2/C1=C/c1ccc[nH]1` [D90, (Z)—N-(3-((1H-pyrrol-2-yl)methylene)-2-oxoindolin-6-yl)-3-(2-fluorophenyl)-2-oxoimidazolidine-1-carboxamide], the values for the IC50 in data set [1] (setting [3]) and in data set [2] were 1.8 nM and greater than 10000 nM, respectively.

As to `COc1ccc(N2CCN(C(=O)Nc3ccc4c(c3)NC(=O)/C4=C\c3ccc[nH]3)C2=O)c(F)c1` [D94, (Z)—N-(3-((1H-pyrrol-2-yl)methylene)-2-oxoindolin-6-yl)-3-(2-fluoro-4-methoxyphenyl)-2-oxoimidazolidine-1-carboxamide], the IC50 in data set [1] (setting [3]) is 4.4 nM; in data set [2], greater than 10000 nM.

Consider `Cc1[nH]c(/C=C2\C(=O)Nc3cc(NC(=O)N4CCN(C5CC5)C4=O)ccc32)c(C)c1CCC(=O)O` [D98, (Z)-3-(5-((6-(3-cyclopropyl-2-oxoimidazolidine-1-carboxamido)-2-oxoindolin-3-ylidene)methyl)-2,4-dimethyl-1H-pyrrol-3-yl)propanoic acid], for which the values for the IC50 in data set [1] (setting [3]) and in data set [2] were 3.2 nM and 119 nM, respectively.

For `Cc1[nH]c(/C=C2\C(=O)Nc3cc(NC(=O)c4c[nH]cc(-c5ccc(F)cc5F)c4=O)ccc32)c(C)c1CCC(=O)O` [D147, (Z)-3-(5-((6-(5-(2,4-difluorophenyl)-4-oxo-1,4-dihydropyridine-3-carboxamido)-2-oxoindolin-3-ylidene)methyl)-2,4-dimethyl-1H-pyrrol-3-yl)propanoic acid], the IC50 in data set [1] (setting [3]) worked out at 6.2 nM; in data set [2], 2.9 nM.

With `Cc1[nH]c(/C=C2\C(=O)Nc3cc(NC(=O)c4c[nH]cc(-c5ccc(F)cc5)c4=O)ccc32)c(C)c1C(=O)N1CCOCC1` [D152, (Z)—N-(3-((3,5-dimethyl-4-(morpholine-4-carbonyl)-1H-pyrrol-2-yl)methylene)-2-oxoindolin-6-yl)-5-(4-fluorophenyl)-4-oxo-1,4-dihydropyridine-3-carboxamide], the IC50 was 2.9 nM in data set [1] (setting [3]) and 753 nM in data set [2].

With `Cc1[nH]c(/C=C2\C(=O)Nc3cc(NC(=O)c4c[nH]cc(-c5ccc(F)cc5)c4=O)ccc32)c(C)c1CC(=O)N1CCOCC1` [D153, (Z)—N-(3-((3,5-dimethyl-4-(2-morpholino-2-oxoethyl)-1H-pyrrol-2-yl)methylene)-2-oxoindolin-6-yl)-5-(4-fluorophenyl)-4-oxo-1,4-dihydropyridine-3-carboxamide], the IC50 in data set [1] (setting [3]) amounted to 73.9 nM; in data set [2], 2.7 nM.

For the origin of these results see patent US8946282B2, “Indolin-2-one derivatives as protein kinase inhibitors” (Annji Pharmaceutical Co., Ltd., priority 2012, dated 2015).
